Results reported in the Kinase Knowledgebase extract (Sharma et al. 2016).

Tests used:
MAPK14 (human) [1] = molecular target: MAPK14 (human) (UniProt Q16539); test: Hydroxyurea-induced Hemoglobinization (K562 Cells); details: concentration not given here
MAPK14 (human) [2] = molecular target: MAPK14 (human) (UniProt Q16539); test: Sodium butyrate-induced Hemoglobinization (K562 Cells); details: concentration not given here

Sequence of MAPK14 (human) (Q16539 whole entry, looked up): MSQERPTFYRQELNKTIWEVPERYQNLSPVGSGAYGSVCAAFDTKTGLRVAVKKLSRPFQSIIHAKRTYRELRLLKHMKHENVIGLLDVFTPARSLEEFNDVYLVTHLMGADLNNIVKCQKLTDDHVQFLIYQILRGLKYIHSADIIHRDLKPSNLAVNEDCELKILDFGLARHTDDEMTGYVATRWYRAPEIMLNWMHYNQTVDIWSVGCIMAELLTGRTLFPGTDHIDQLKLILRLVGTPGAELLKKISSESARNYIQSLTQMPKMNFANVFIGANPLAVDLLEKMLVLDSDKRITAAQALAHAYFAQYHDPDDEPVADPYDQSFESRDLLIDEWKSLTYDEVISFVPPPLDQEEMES

| Structure (SMILES) | cell count (MAPK14 (human) [1]) | cell count (MAPK14 (human) [2]) |
| --- | --- | --- |
| COc1cccc(-c2cc(=O)c3ccccc3o2)c1N | 32.4% |  |
| CCCC(=O)[O-].[Na+] |  | 39.8% |
| COc1cccc(-c2cc(=O)c3ccccc3o2)c1N.NC(=O)NO | 54% |  |
